Results: the NIST ThermoML archive (doi:10.1016/j.tca.2010.05.009)
± gives the expanded uncertainty stated by the source.

Conditions: Crystal; Differential scanning calorimeter

Normal melting temperature: 75.1 ± 1 °C
Compound: CC(C)Cc1ccc(C(C)C(=O)O)cc1 (stereo unspecified) [ibuprofen]
